Laboratory results: paper PMC6858373 (Scientific Reports, 2019)
Like-named read-outs stand apart in the source and are kept apart here. *1 amine or outer side, *2 acyl side, *3 side chain or, on linkers, in order; H or OH if unused. Where a SMILES comes first, the peptide text is derived from it. Bridges are numbered along the chain shown (N, C = ends). Roman numbers before positions name the chains, in order. [ ]: non-standard residue; d: D form. Actinocin(9to1) = Cc1c2oc3c(C)ccc(C(=O)[*:1])c3nc-2c(C(=O)[*:2])c(N)c1=O; NMeV = CN[C@H](C(=O)O)C(C)C; Sar = CNCC(=O)O

Experiments:
[1] = target: full-length P. pyralis luciferase (Photinus pyralis, UniProt P08659, K549A/L550V/N119G/N50D/S548I); type: cell-based; conditions: for Luciferase Assay % Lum: full-length luciferase counter-screen luminescence; for Luciferase Assay Z-score: full-length luciferase counter-screen
[2] = target: T1, FGF14:Nav1.6 C-tail complex (Homo sapiens, UniProt Q92915+Q9UQD0); experiment: Split-luciferase complementation assay (LCA) in Clone V double stable HEK293 cells; type: cell-based; conditions: for Split Luciferase Assay Z-score Set 1 / Split Luciferase Assay % Lum Set 1: biological replicate Set 1; for Split Luciferase Assay Z-score Set 1 / Split Luciferase Assay Z-score Set 2: normalized to on-plate 0.3% DMSO controls; for Split Luciferase Assay Z-score Set 2 / Split Luciferase Assay %Lum Set 2: biological replicate Set 2; for Split Luciferase Assay %Lum Set 2 / Split Luciferase Assay % Lum Set 1: normalized to on-plate 0.3% DMSO controls (n=16 per plate); for Split Luciferase Assay %Lum Avg: average of Set 1 and Set 2, normalized to 0.3% DMSO controls
T1 construct: polymerase chain reaction (PCR) amplification of the FGF14 open reading frame (nt 1–855); C-terminal fragment of Nav1.6 (amino acids 1763–1976) fused with CD4ΔC-tail (amino acids 1–395); expressed in transfected cells

[3] = CC_NCI screening, normalized to on-plate 0.3% DMSO controls
[4] = CC_NCI screening, LCA luminescence

T1 sequence (Q92915 1-252 isoform Q92915-2): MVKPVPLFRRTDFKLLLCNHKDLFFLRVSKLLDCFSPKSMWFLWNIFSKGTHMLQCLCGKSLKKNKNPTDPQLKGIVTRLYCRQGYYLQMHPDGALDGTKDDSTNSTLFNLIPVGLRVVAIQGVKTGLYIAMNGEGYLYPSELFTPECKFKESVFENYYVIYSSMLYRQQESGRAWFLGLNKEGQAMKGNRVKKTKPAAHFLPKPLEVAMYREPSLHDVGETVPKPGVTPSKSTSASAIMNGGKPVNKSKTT
T1 sequence (Q9UQD0 1763-1976 limits assumed): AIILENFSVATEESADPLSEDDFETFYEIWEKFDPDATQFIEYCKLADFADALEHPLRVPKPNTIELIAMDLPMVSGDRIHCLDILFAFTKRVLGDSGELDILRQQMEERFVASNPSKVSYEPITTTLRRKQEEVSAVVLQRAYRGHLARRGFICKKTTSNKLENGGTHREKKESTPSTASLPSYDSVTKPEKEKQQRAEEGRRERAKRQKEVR
Sequence of full-length P. pyralis luciferase (P08659 whole entry N50D/N119G/S548I/K549A/L550V, looked up): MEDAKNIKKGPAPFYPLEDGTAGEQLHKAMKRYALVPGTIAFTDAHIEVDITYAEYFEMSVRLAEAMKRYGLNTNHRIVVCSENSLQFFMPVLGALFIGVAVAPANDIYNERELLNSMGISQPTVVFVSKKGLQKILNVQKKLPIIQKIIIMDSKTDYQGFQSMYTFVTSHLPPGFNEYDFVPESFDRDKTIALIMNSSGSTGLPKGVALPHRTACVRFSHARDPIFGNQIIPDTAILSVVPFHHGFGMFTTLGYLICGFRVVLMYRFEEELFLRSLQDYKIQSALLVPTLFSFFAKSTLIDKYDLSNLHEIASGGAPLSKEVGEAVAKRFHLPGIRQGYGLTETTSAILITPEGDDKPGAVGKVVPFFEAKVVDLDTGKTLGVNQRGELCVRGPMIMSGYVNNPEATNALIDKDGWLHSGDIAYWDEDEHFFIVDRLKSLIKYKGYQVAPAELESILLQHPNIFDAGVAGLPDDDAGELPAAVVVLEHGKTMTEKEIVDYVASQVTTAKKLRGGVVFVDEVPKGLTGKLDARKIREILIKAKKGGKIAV

Row | Compound | Luciferase Assay % Lum (full-length luciferase counter-screen) [1, 3] | Luciferase Assay Z-score (full-length luciferase counter-screen) [1, 3] | Split Luciferase Assay Z-score Set 1 ([2]; CC_NCI screening) | Split Luciferase Assay Z-score Set 2 ([2]; CC_NCI screening) | Split Luciferase Assay %Lum Set 2 ([2]; CC_NCI screening) | Split Luciferase Assay %Lum Avg [2] | Toxicity Assay % Fluor (CTB cell viability fluorescence) (Clone V cells) | Toxicity Assay Z-score (CTB cell viability) (Clone V cells) | Luciferase Assay % Lum [1, 3] | Luciferase Assay Z-score [1, 3] | Split Luciferase Assay % Lum Set 1 [2, 4] | Split Luciferase Assay %Lum Set 2 [2, 4] | Split Luciferase Assay Z-score Set 1 ([2]; CC_NCI screening, LCA) | Split Luciferase Assay Z-score Set 2 ([2]; CC_NCI screening, LCA) | Split Luciferase Assay %Lum Avg ([2]; CC_NCI screening) | Split Luciferase Assay % Lum Set 1 ([2]; CC_NCI screening) | also measured
1 | c1cc(-c2cnn3cc(-c4ccc(OCCN5CCCCC5)cc4)cnc23)ccn1 [COMPOUND C] | 104.57% | 0.59 | 3.01 | 1.26 | 115.47% | 126.39% | 115.42% | 2.16 |  |  |  |  |  |  |  |  | 
2 | CS(=O)(=O)CCNCc1ccc(-c2ccc3ncnc(Nc4ccc(OCc5cccc(F)c5)c(Cl)c4)c3c2)o1 [Lapatinib] |  |  | 1.35 | -1.87 | 76.98% | 96.81% | 114.10% | 1.97 |  |  |  |  |  |  |  |  | Luciferase Assay % Lum (full-length luciferase counter-screen) [1]: 75.39%; Luciferase Assay Z-score (full-length luciferase counter-screen) [1]: -3.15
3 | COc1cccc(-c2cc(=O)c3ccccc3o2)c1N [PD 98059] |  |  |  |  |  |  |  |  | 90.17% | -1.26 | 103.60% | 106.11% | 0.29 | 0.50 | 104.86% |  | Toxicity Assay % Fluor (Clone V cells): 88.34%; Toxicity Assay Z-score (Clone V cells): -1.63
4 | COc1ccc2c(c1OC)N=C(NC(=O)c1cccnc1)N1CCN=C21 [PIK 90] | 102.65% | 0.34 | -0.15 | -1.11 | 86.35% | 92.26% | 101.53% | 0.21 |  |  |  |  |  |  |  | 98.17% | 
5 | O=C1NC(=O)c2c1c1c3ccccc3n3c1c1c2c2ccccc2n1C1CCC3O1 [SB 218078] | 92.40% | -0.97 | -1.55 | -1.79 | 78.02% | 79.40% | 109.07% | 1.27 |  |  |  |  |  |  |  | 80.77% | 
6 | Cc1c2oc3c(C)ccc(C(=O)N[C@@H]4C(=O)N[C@H](C(C)C)C(=O)N5CCC[C@H]5C(=O)N(C)CC(=O)N(C)[C@@H](C(C)C)C(=O)O[C@@H]4C)c3nc-2c(C(=O)N[C@@H]2C(=O)N[C@H](C(C)C)C(=O)N3CCC[C@H]3C(=O)N(C)CC(=O)N(C)[C@@H](C(C)C)C(=O)O[C@@H]2C)c(N)c1=O [Dactinomycin] (I: T[dV]P[Sar][NMeV] / II: T[dV]P[Sar][NMeV]; ester I:1-I:C, II:1-II:C; linker I:N-II:N via Actinocin(9to1)) |  |  |  |  |  |  |  |  | 95.88% | -0.53 |  | 65.54% |  | -2.80 | 62.83% |  | Toxicity Assay % Fluor (Clone V cells; human): 93.25%; Toxicity Assay Z-score (Clone V cells; human): -0.94
7 | Cn1cc(C2=C(c3cn(C4CCN(Cc5ccccn5)CC4)c4ccccc34)C(=O)NC2=O)c2ccccc21 [ENZASTAURIN] |  |  |  |  |  |  |  |  | 90.70% | -1.19 | 84.03% | 96.75% | -1.29 | -0.26 | 90.39% |  | Toxicity Assay % Fluor (Clone V cells; human, 16 h, 30 µM): 95.12%; Toxicity Assay Z-score (Clone V cells; human, 16 h, 30 µM): -0.68
8 | DNA-PK INHIBITOR V | 82.55% | -2.23 | -0.59 | -0.01 | 99.87% | 96.30% | 115.08% | 2.11 |  |  |  |  |  |  |  | 92.73% | 
9 | C[C@@H](N)[C@H]1CC[C@H](C(=O)Nc2ccncc2)CC1 [Compound Y-27632] |  |  |  |  |  |  |  |  | 95.76% | -0.54 | 76.42% | 74.90% | -1.91 | -2.04 | 75.66% |  | Toxicity Assay % Fluor (Clone V cells): 96.21%; Toxicity Assay Z-score (Clone V cells): -0.53
